Reference: patent US12128035B2, “Activating pyruvate kinase R” (Novo Nordisk Health Care AG, priority 2021, dated 2024)

System: ATP blood levels
Experiment: Phase 1 SAD/MAD: blood ATP (LC-MS/MS) in healthy volunteers
Type: in vivo, human
Experimental: In this study, SAD/MAD cohorts are randomized (3 to 1) to receive Compound 1 or placebo (P). Compound 1 was evaluated first in 4 healthy SAD cohorts and 4 healthy MAD (14-day dosing period) cohorts. Based on the safety, and PK/PD profile from HS, Compound 1 is then evaluated in 1 SCD SAD cohort and 2 SCD MAD cohorts. Specifically, based on the safety and pharmacokinetic/pharmacodynamics (PK/PD) profile in healthy volunteer studies, Compound 1 is evaluated in patients (pts) with SCD, first in a single dose (SD or SAD) cohort and then in multiple-dose (MD or MAD) cohorts (14-day and 12-week). Safety assessments include AEs, vital signs, ECGs and laboratory parameters. PK/PD blood sampling was performed on Day 1 (SAD/MAD) and Day 14 (MAD) and up to 72 h after the last dose and at the end-of-study visit. PD parameters included 2,3-DPG, ATP, and p50 in all cohorts with additional PD studies (including oxygen scan) performed only in the SCD cohorts. PD parameters included 2,3-DPG, ATP, p50, RBC deformability with controlled deoxygenation and reoxygenation (Lorrca® oxygen scan) and varying osmolality (Lorrca® osmoscan)). To maintain study blind, pt identifiers were removed when needed.
In the MAD cohorts, the subjects' blood ATP levels were measured […] by a qualified LC-MS/MS method for the quantitation of ATP in blood. […] Table 20A reports the median percentage change in blood ATP levels, relative to baseline, measured over time after the first dose on days 1 and 14 in healthy volunteers who received daily doses of Compound 1 (100 mg BID, 200 mg BID, 300 mg BID, or 400 mg QD) or placebo for 14 days. Table 20B reports the mean percentage change in ATP blood levels, relative to baseline, measured over time after the first dose on days 1 and 14 in healthy volunteers who received daily doses of Compound 1 (100 mg BID, 200 mg BID, 300 mg BID, or 400 mg QD) for 14 days.
The following procedures are employed for the analysis of ATP and 2,3-DPG in human whole blood K2EDTA using a protein precipitation extraction procedure and analysis by LC-MS/MS.
The following procedures are used for sample extraction prior to analysis via LC-MS/MS. 15.0 μL of the calibration standards, quality controls, matrix blanks, and samples are aliquoted into a 96-well plate. 50.0 μL of the internal standard spiking solution is added to all samples on the plate, with the exception of the matrix blank samples; 50.0 μL of water is added to the matrix blank samples. Subsequently, 150 μL of water is added to all samples on the plate. The plate is then covered and agitated by vortex at high speed for ten minutes, after which 750 μL of methanol is added to all samples on the plate. The plate is covered and agitated by vortex for approximately 1 minute. The plate is then centrifuged at approximately 3500 RPM at approximately 4° C. for five minutes. After centrifugation, a liquid handler is used to transfer 50 μL of each sample to a new 96-well plate, and 200 μL of acetonitrile is added to all samples on the plate. The newly prepared plate is covered and agitated by vortex for approximately 1 minute. The plate is then centrifuged at approximately 3500 RPM at approximately 4° C. for 2 minutes.

[1] = HV 100 mg BID, Day 1, 0 h after first daily dose
[2] = HV 100 mg BID, Day 1, 6 h after first daily dose
[3] = HV 100 mg BID, Day 1, 8 h after first daily dose
[4] = HV 100 mg BID, Day 1, 12 h after first daily dose
[5] = HV 100 mg BID, Day 1, 16 h after first daily dose
[6] = HV 100 mg BID, Day 1, 24 h after first daily dose
[7] = HV 100 mg BID, Day 14, 0 h after first daily dose
[8] = HV 100 mg BID, Day 14, 6 h after first daily dose
[9] = HV 100 mg BID, Day 14, 8 h after first daily dose
[10] = HV 100 mg BID, Day 14, 12 h after first daily dose
[11] = HV 100 mg BID, Day 14, 16 h after first daily dose
[12] = HV 100 mg BID, Day 14, 24 h after first daily dose
[13] = HV 100 mg BID, Day 14, 48 h after first daily dose
[14] = HV 100 mg BID, Day 14, 72 h after first daily dose
[15] = HV 200 mg BID, Day 1, 0 h after first daily dose
[16] = HV 200 mg BID, Day 1, 6 h after first daily dose
[17] = HV 200 mg BID, Day 1, 8 h after first daily dose
[18] = HV 200 mg BID, Day 1, 12 h after first daily dose
[19] = HV 200 mg BID, Day 1, 16 h after first daily dose
[20] = HV 200 mg BID, Day 1, 24 h after first daily dose
[21] = HV 200 mg BID, Day 14, 0 h after first daily dose
[22] = HV 200 mg BID, Day 14, 6 h after first daily dose
[23] = HV 200 mg BID, Day 14, 8 h after first daily dose
[24] = HV 200 mg BID, Day 14, 12 h after first daily dose
[25] = HV 200 mg BID, Day 14, 16 h after first daily dose
[26] = HV 200 mg BID, Day 14, 24 h after first daily dose
[27] = HV 200 mg BID, Day 14, 48 h after first daily dose
[28] = HV 200 mg BID, Day 14, 72 h after first daily dose
[29] = HV 300 mg BID, Day 1, 0 h after first daily dose
[30] = HV 300 mg BID, Day 1, 6 h after first daily dose
[31] = HV 300 mg BID, Day 1, 8 h after first daily dose
[32] = HV 300 mg BID, Day 1, 12 h after first daily dose
[33] = HV 300 mg BID, Day 1, 16 h after first daily dose
[34] = HV 300 mg BID, Day 1, 24 h after first daily dose
[35] = HV 300 mg BID, Day 14, 0 h after first daily dose
[36] = HV 300 mg BID, Day 14, 6 h after first daily dose
[37] = HV 300 mg BID, Day 14, 8 h after first daily dose
[38] = HV 300 mg BID, Day 14, 12 h after first daily dose
[39] = HV 300 mg BID, Day 14, 16 h after first daily dose
[40] = HV 300 mg BID, Day 14, 24 h after first daily dose
[41] = HV 300 mg BID, Day 14, 48 h after first daily dose
[42] = HV 300 mg BID, Day 14, 72 h after first daily dose
[43] = HV 400 mg QD, Day 1, 0 h after first daily dose
[44] = HV 400 mg QD, Day 1, 6 h after first daily dose
[45] = HV 400 mg QD, Day 1, 8 h after first daily dose
[46] = HV 400 mg QD, Day 1, 12 h after first daily dose

For `O=C([C@H](CO)c1ccccc1)N1CC2=C(C1)CN(S(=O)(=O)c1cnc3c(c1)OCCO3)C2` (single isomer, unassigned) [Compound 1], the “Mean Percentage Change in ATP Levels” value [1] was 0%, the “Median Percentage Change in ATP Levels” value [1] was 0% and the “Mean Percentage Change in ATP Levels” value [2] was −5.6%. The “Median Percentage Change in ATP Levels” value [2] was −5.7%, the “Mean Percentage Change in ATP Levels” value [3] was −2.0% and the “Median Percentage Change in ATP Levels” value [3] was 0.0%. For the same molecule, the “Mean Percentage Change in ATP Levels” value [4] was −0.6%, the “Median Percentage Change in ATP Levels” value [4] was −1.2% and the “Mean Percentage Change in ATP Levels” value [5] was 1.9%. For the same molecule, the “Median Percentage Change in ATP Levels” value [5] was 3.3%, the “Mean Percentage Change in ATP Levels” value [6] was 4.4% and the “Median Percentage Change in ATP Levels” value [6] was 5.7%. For the same molecule, the “Mean Percentage Change in ATP Levels” value [7] was 49%, the “Median Percentage Change in ATP Levels” value [7] was 42% and the “Mean Percentage Change in ATP Levels” value [8] was 45%. The “Median Percentage Change in ATP Levels” value [8] was 44%, the “Mean Percentage Change in ATP Levels” value [9] was 49% and the “Median Percentage Change in ATP Levels” value [9] was 48%. The “Mean Percentage Change in ATP Levels” value [10] was 45%, the “Median Percentage Change in ATP Levels” value [10] was 45% and the “Mean Percentage Change in ATP Levels” value [11] was 47%. The “Median Percentage Change in ATP Levels” value [11] was 45%, the “Mean Percentage Change in ATP Levels” value [12] was 55% and the “Median Percentage Change in ATP Levels” value [12] was 55%. For the same molecule, the “Mean Percentage Change in ATP Levels” value [13] was 51%, the “Median Percentage Change in ATP Levels” value [13] was 52% and the “Mean Percentage Change in ATP Levels” value [14] was 47%. The “Median Percentage Change in ATP Levels” value [14] was 49%, the “Mean Percentage Change in ATP Levels” value [15] was 0% and the “Median Percentage Change in ATP Levels” value [15] was 0%. The “Mean Percentage Change in ATP Levels” value [16] was 1.7%, the “Median Percentage Change in ATP Levels” value [16] was −4.3% and the “Mean Percentage Change in ATP Levels” value [17] was 4.7%. The “Median Percentage Change in ATP Levels” value [17] was 5.4%, the “Mean Percentage Change in ATP Levels” value [18] was 6.7% and the “Median Percentage Change in ATP Levels” value [18] was 4.3%. For the same molecule, the “Mean Percentage Change in ATP Levels” value [19] was 5.6%, the “Median Percentage Change in ATP Levels” value [19] was 6.0% and the “Mean Percentage Change in ATP Levels” value [20] was −0.2%. For the same molecule, the “Median Percentage Change in ATP Levels” value [20] was 1.1%, the “Mean Percentage Change in ATP Levels” value [21] was 59% and the “Median Percentage Change in ATP Levels” value [21] was 62%. For the same molecule, the “Mean Percentage Change in ATP Levels” value [22] was 50%, the “Median Percentage Change in ATP Levels” value [22] was 48% and the “Mean Percentage Change in ATP Levels” value [23] was 56%. The “Median Percentage Change in ATP Levels” value [23] was 58%, the “Mean Percentage Change in ATP Levels” value [24] was 56% and the “Median Percentage Change in ATP Levels” value [24] was 56%. The “Mean Percentage Change in ATP Levels” value [25] was 53%, the “Median Percentage Change in ATP Levels” value [25] was 57% and the “Mean Percentage Change in ATP Levels” value [26] was 66%. The “Median Percentage Change in ATP Levels” value [26] was 65%, the “Mean Percentage Change in ATP Levels” value [27] was 62% and the “Median Percentage Change in ATP Levels” value [27] was 70%. The “Mean Percentage Change in ATP Levels” value [28] was 57%, the “Median Percentage Change in ATP Levels” value [28] was 54% and the “Mean Percentage Change in ATP Levels” value [29] was 0%. The “Median Percentage Change in ATP Levels” value [29] was 0%, the “Mean Percentage Change in ATP Levels” value [30] was −4.5% and the “Median Percentage Change in ATP Levels” value [30] was −7.6%. For the same molecule, the “Mean Percentage Change in ATP Levels” value [31] was −2.0%, the “Median Percentage Change in ATP Levels” value [31] was −2.4% and the “Mean Percentage Change in ATP Levels” value [32] was −0.6%. For the same molecule, the “Median Percentage Change in ATP Levels” value [32] was 0.9%, the “Mean Percentage Change in ATP Levels” value [33] was −0.5% and the “Median Percentage Change in ATP Levels” value [33] was −1.1%. For the same molecule, the “Mean Percentage Change in ATP Levels” value [34] was 2.2%, the “Median Percentage Change in ATP Levels” value [34] was 1.8% and the “Mean Percentage Change in ATP Levels” value [35] was 46%. The “Median Percentage Change in ATP Levels” value [35] was 46%, the “Mean Percentage Change in ATP Levels” value [36] was 51% and the “Median Percentage Change in ATP Levels” value [36] was 51%. The “Mean Percentage Change in ATP Levels” value [37] was 52%, the “Median Percentage Change in ATP Levels” value [37] was 50% and the “Mean Percentage Change in ATP Levels” value [38] was 49%. The “Median Percentage Change in ATP Levels” value [38] was 51%, the “Mean Percentage Change in ATP Levels” value [39] was 52% and the “Median Percentage Change in ATP Levels” value [39] was 53%. For the same molecule, the “Mean Percentage Change in ATP Levels” value [40] was 56%, the “Median Percentage Change in ATP Levels” value [40] was 52% and the “Mean Percentage Change in ATP Levels” value [41] was 57%. For the same molecule, the “Median Percentage Change in ATP Levels” value [41] was 58%, the “Mean Percentage Change in ATP Levels” value [42] was 48% and the “Median Percentage Change in ATP Levels” value [42] was 49%. For the same molecule, the “Mean Percentage Change in ATP Levels” value [43] was 0%, the “Median Percentage Change in ATP Levels” value [43] was 0% and the “Mean Percentage Change in ATP Levels” value [44] was −1.2%. For the same molecule, the “Median Percentage Change in ATP Levels” value [44] was −1.7%, the “Mean Percentage Change in ATP Levels” value [45] was −2.9% and the “Median Percentage Change in ATP Levels” value [45] was −4.5%. For the same molecule, the “Mean Percentage Change in ATP Levels” value [46] was 2.4%, the “Median Percentage Change in ATP Levels” value [46] was 3.5% and the “Mean Percentage Change in ATP Levels” value (HV 400 mg QD, Day 1, 16 h after first daily dose) was −2.2%.
